Where a name gives a salt, the structure may show the parent alone. Read-outs that look alike come from different tables or passages of the source.
Key:
[1] = system: Streptococcus pneumoniae R6; assay: Growth inhibition / lysis screening of planktonic cultures (OD550/600); assay type: cell-based; parameters: key: (+++) full inhibition; (++) partial inhibition; (+) growth retardation; -: (−) no effect; details: S. pneumoniae R6, 50 and 100 μM compound added at early logarithmic phase (T1), OD550/600 followed 10 h, 37°C
Method in brief: (§1)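 Early exponential-phase cultures (OD550/600 c. a. 0.15–0.2) were treated with DICAMs at 50 and 100 μM final, diluted from DMSO stocks into medium, and incubated 10 h at 37°C. Turbidity (OD550/600) was read every 20 min against untreated controls to track growth inhibition and lysis.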

Streptococcus pyogenes T = assay: Growth inhibition screening of planktonic cultures (OD550/600); assay type: cell-based; parameters: key: (+++) full inhibition; (++) partial inhibition; (+) growth retardation; -: (−) no effect; details: S. pyogenes T, 50 and 100 μM compound added at T1, OD550/600 followed 10 h, 37°C
Method in brief: as §1

S. pneumoniae D39 = assay type: cell-based, Streptococcus pneumoniae; details: for SC (stationary concentration, Δlog = 0), S. pneumoniae D39 / EC50 / Δlogmax, S. pneumoniae D39: 1 h treatment, 37°C, Hill fit; for SC (stationary concentration, Δlog = 0), S. pneumoniae D39: C + Y medium, added at T1, 10^7–10^8 CFU/mL, CFU vs untreated controls; for EC50 / Δlogmax, S. pneumoniae D39: C + Y; for EC50: read-out: K 1/2 (concentration yielding half-variation in Δlogmax), S. pneumoniae D39 (converted); for Reduction of the number of viable cells at 3 × SC, S. pneumoniae: after 1-h incubation at 3 × SC values; for Δlogmax, S. pneumoniae D39: maximum variation in viability
Text: First, the substitution of the fatty amino chain of 18 carbon atoms of the reference compound DICAM 2 by either an OMe group (methylated tripeptide DICAM 5) or an amine with 12 carbon atoms (DICAM 9) abolished the activity against all three pathogens. However, the activity remained intact when the chain of the fatty amine of prototypes DICAMs 1 and 4 was two carbon atoms shorter (DICAM 10 and DICAM 12, respectively), based on S. pneumoniae and S. pyogenes results. […] Third, Glu and Ala were tolerated as C-terminal residues of the lipotripeptides. […] In addition, deletion of the C-terminal Glu (DICAM 13) eradicated the activity against S. pneumoniae and S. aureus. However, a delay and small inhibition of S. pyogenes ^T growth was still observed. Fourth, Glu (DICAMs 19 and 20) and Orn (DICAMs 21 and 22) were tolerated as N-terminal residues, with the impact of these modifications being pathogen-dependent. […] SAR studies continued by measuring the dose dependence of DICAM’s activity at T1 with all the compounds found to be active against S. pyogenes or S. aureus in the initial screening, and all but one compound in the case of S. pneumoniae. The OD values of bacterial cultures were monitored after DICAM addition, and the decrease in the number of viable bacteria was measured relative to controls (Figures 4–6; Supplementary Figure S1). As antibacterial efficacy may decline with the bacterium dose in the inoculum ([Belley et al., 2009]; [Udekwu et al., 2009]; [Luca et al., 2013]), the assays were performed using the bacterial concentrations necessary for the fluorescence experiments in Section 2.3 (10^7–10^8 CFU/mL). At these high bacterial densities, MICs were determined as the DICAM concentration at which bacteria neither grow nor are killed (the stationary concentration (SC)), following [Udekwu et al., 2009]. By fitting the logarithmic plot of cell viability decrease vs. the DICAM dose to a Hill function (see Section 5.2.3.1) we were able to determine the maximum variation in viability (Δlogmax = ∆log f - ∆log 0, where ∆log f and ∆log 0 are the upper and lower limits of Δlog) in the assay conditions, the SC concentration (Δlog = 0), the dose required for half-variation in Δlogmax (K 1/2), and the cooperativity of the antimicrobial effect (N H).
Susceptibility to DICAMs was first tested by growth-inhibition assays at 50 and 100 μM of compound. Briefly, working solutions at 5 mM or 10 mM DICAM in pure DMSO were prepared from DICAM stocks (40 mM in pure DMSO) and diluted with fresh culture medium to 5× the desired final concentration. Aliquots (50 µL) of these solutions were added to 200 µL of bacterium cultures grown to early exponential phase (OD550/600 c. a. 0.15–0.2 in sterile 96-well plates (Cultek, Spain). Incubation continued for 10 h at 37°C and turbidity (OD550/600) values were measured every 20 min to monitor growth and lysis, using a VersaMax microplate reader (Molecular Devices; United Kingdom). Next, the activity dependence on DICAM’s dose was examined by measuring the turbidity of treated and untreated cultures as a function of time. Also, the decay of bacterial viability (CFU/mL) at selected times of treatment was assessed by colony counting on LB-agar or TSA plates after overnight incubation at 37°C. By default, 10 μL of 10-fold serially diluted samples were plated, which set the lower detection limit at 10^2 CFU/mL (10^1 CFU/mL when 100 μL of the undiluted sample was seeded).
As antibacterial efficacy may decline with the bacterium dose in the inoculum ([Belley et al., 2009]; [Udekwu et al., 2009]; [Luca et al., 2013]), activity assays were performed using the bacterial concentrations required for the fluorescence experiments in Section 2.3 (10^7–10^8 CFU/mL). At such bacterial densities, MICs were determined as the DICAM concentration at which bacteria neither grow nor are killed under assay conditions (the stationary concentration (SC)), as indicated in Section 2.2. […]

[2] = system: human fetal lung fibroblasts IMR-90; assay type: cell-based
Protocol: DICAM’s cytotoxicity was determined employing a modified MTT assay as described elsewhere ([Antúnez-Mojica et al., 2016]) using human lung carcinoma epithelial cells A549, human fetal lung fibroblasts IMR-90, and human HeLa cervix carcinoma cells treated with increasing concentrations of DICAMs (0.8–200 µM range). A549 cells were grown in RPMI 1640 (Gibco; Fisher Scientific, Spain) supplemented with 10% FCS, 2 mM glutamine, 100 IU/mL penicillin and 100 μg/mL streptomycin. IMR-90 and HeLa cells were cultured in DMEM (Gibco; Fisher Scientific, Spain) supplemented with 10% FCS, 2 mM L-glutamine, 1 mM pyruvate, […] penicillin, 100 μg/mL streptomycin and 40 μg/mL gentamycin. Cell viability was assessed after 48 h exposure to DICAMs. Vinblastine was used as a positive control. IC50 value is the concentration that gives 50% inhibition of cell growth and was determined using SigmaPlot (Systat) fitting to a Four Parameter Logistic curve.

Compound	Growth halt or lysis (50/100 μM), Spn [1]	Growth halt or lysis (50/100 μM), Spy T (Streptococcus pyogenes T)	SC (stationary concentration, Δlog = 0), S. pneumoniae D39 (S. pneumoniae D39)	EC50 (S. pneumoniae D39)	Bacterial viability reduction at ≈ 5 μM (S. pneumoniae D39; S. pneumoniae D39, within 60 min, ≈ 5 μM)	Reduction of the number of viable cells at 3 × SC, S. pneumoniae (S. pneumoniae D39)	Δlogmax, S. pneumoniae D39 (S. pneumoniae D39)	IC50 ([2]; 48 h)	Bacterial viability reduction at 10 μM (S. pneumoniae D39; S. pneumoniae D39, within 60 min, 10 μM)	Reduction of the number of viable cells at saturating doses (S. pneumoniae D39; S. pneumoniae D39, within 60 min)	IC50 ([2]; modified MTT, 48 h exposure, 0.8–200 µM, four parameter logistic fit, ± SD, at least three independent experiments, read-out: IC50 IMR-90)
CCCCCCCCCCCCCCCCCCNC(=O)[C@H](CCC(=O)O)NC(=O)[C@H]1CCCN1C(=O)[C@H](CCC(=O)O)NC(=O)OCc1ccccc1 [DICAM 19, Cbz-Glu- Pro -Glu-NH-C18H37]	+++	+++	3.0 ± 0.8 µM	~5 µM	> 99.5%	99.2%–99.8	3.0 ± 0.2 logarithmic units	44 ± 1 µM			
CCCCCCCCCCCCCCCCCCNC(=O)[C@H](CCC(=O)O)NC(=O)[C@H]1CCCN1C(=O)[C@@H](N)CCC(=O)O [DICAM 20, Glu- Pro -Glu-NH-C18H37 · HCl]	+++	+++	3.0 ± 0.7 µM	4.4 ± 0.6 µM		99.2%–99.8	3.0 ± 0.1 logarithmic units	78.6 ± 0.1 µM	> 99.5%		
CCCCCCCCCCCCCCCCCCNC(=O)[C@H](CCC(=O)O)NC(=O)[C@H]1CCCN1C(=O)[C@H](CCCN)NC(=O)OCc1ccccc1 [DICAM 21, Cbz-Orn- Pro -Glu-NH-C18H37]	+++	+++	8 ± 1 µM	9 ± 1 µM			1.9 ± 0.1 logarithmic units	86 ± 15 µM			
CCCCCCCCCCCCCCCCCCNC(=O)[C@H](CCC(=O)O)NC(=O)[C@H]1CCCN1C(=O)[C@@H](N)CCCN [DICAM 22, Orn- Pro -Glu-NH-C18H37 · HCl]	+++	++	20 ± 8 µM	22 ± 8 µM			1.4 ± 0.4 logarithmic units	58 ± 0.4 µM			
CCCCCCCCCCCCCCCCCCNC(=O)[C@H](CCC(=O)O)NC(=O)[C@H]1CCCN1C(=O)[C@H](C)NC(C)=O [DICAM 24, Ac-Ala- Pro -Glu-NH-C18H37]	+++	+++	4 ± 0.8 µM	6.1 ± 0.6 µM			2.2 ± 0.1 logarithmic units	43.8 ± 0.6 µM			
Ala - Pro -Glu-NH-C18H37 · HCl [DICAM 23]	+++	+++	2.9 ± 0.8 µM	8.6 ± 0.3 µM		99.2%–99.8	5.4 ± 0.2 logarithmic units			≥ 4.6 log-units	57 ± 2 µM

Source: paper PMC11329928, “Design, synthesis and structure-activity relationship (SAR) studies of an unusual class of non-cationic fatty amine-tripeptide conjugates as novel synthetic antimicrobial agents” (Frontiers in Pharmacology, 2024)
